Data from patent publication US10583137B2, “Triazole DAGLα inhibitors” (THE SCRIPPS RESEARCH INSTITUTE, priority 2015, dated 2020).

What was measured:
[1] = test system: DSI at CA1 pyramidal neuron synapses; experiment: depolarization-induced suppression of inhibition (DSI) in hippocampal slices; details: 10 μM, bath application 30 min
Method: DSI was evaluated at CA1 pyramidal neuron synapses in hippocampal slices. DSI was induced in vehicle-treated hippocampal slices by applying a brief depolarization while evoking […] through stimulation of synaptic inhibitory inputs (FIG. 7C). Bath application of compound 14 (10 μM) and compound 17 (1 μM), but not compound 22 (10 μM), for 30 min before starting electrophysiological recordings blocked hippocampal DSI (FIGS. 7C and D).

recombinant human DAGLα = recombinant human DAGLα (Homo sapiens (Human), UniProt Q9Y4D2); experiment: SAG substrate assay (in vitro inhibition of 2-AG biosynthesis), membrane lysates from HEK293T cells; type: biochemical; details: any dose tested
Method: DAGL modulators were tested for in vitro inhibition of 2-AG biosynthesis using a 1-stearoyl-2-arachidonoyl-sn-glycerol (SAG) substrate assay in DAGL-transfected HEK293 cells.
The SAG substrate assay, as described in Journal of lipid research 56(4):927-935, was performed using the following assay conditions: 0.2 U/mL glycerol kinase (GK), glycerol-3-phosphate oxidase (GPO) and horseradish peroxidase (HRP), 0.125 mM ATP, 10 μM Amplifu™Red, 5% DMSO in a total volume of 200 μL. The assay additionally contained SAG, a DAGL modulator, and membrane lysates from HEK293T cells expressing recombinant human DAGLα or DAGLβ.
Membranes were prepared from HEK293T cells transiently transfected with DAGLα or DAGLβ plasmids encoding for full length DAGLα or DAGLβ, respectively (Angewandte Chemie 52(46):12081-12085; Journal of Medicinal Chemistry 57(15):6610-6622). Briefly, one day prior to transfection, 10^7 cells were seeded in a 15 cm petri dish. The seeded cells were transfected by the addition of a 3:1 mixture of polyethyleneimine (60 μg) and plasmid DNA (20 μg) in 2 mL serum free medium. The medium was refreshed after 24 hr, and after 72 hr the cells were harvested by suspending them in 20 mL medium. The suspension was centrifuged for 10 min at 1000 rpm, and the supernatant was removed. The cell pellet was stored at −80° C. until use. Cell pellets were thawed on ice and suspended in lysis buffer A (20 mM HEPES, 2 mM DTT, 0.25 M sucrose, 1 mM MgCl2, lx protease inhibitor cocktail (Roche cOmplete EDTA free), 25 U/μL Benzonase). The suspension was homogenized by polytrone (3×7 sec) and incubated for 30 min on ice. The suspension was subjected to ultracentrifugation (100,000×g, 30 min, 4° C., Beckman Coulter, Type Ti70 rotor) to yield the cytosolic fraction in the supernatant and the membrane fraction as a pellet. The pellet was resuspended in lysis buffer B (20 mM HEPES, 2 mM DTT, lx protease inhibitor cocktail (Roche cOmplete EDTA free)) and the protein concentration determined with Quick Start Bradford assay (Biorad). The protein fractions were diluted to a total protein concentration of 1 mg/mL and stored in small aliquots at −80° C. until use.

[2] = test system: LPS-induced neuroinflammatory responses (brain lipids, cytokines, body temperature); experiment: LPS-induced neuroinflammatory responses in mouse brain; type: in vivo; details: mice
Method: The effects of pharmacological and genetic inactivation of DAGL activity on neuroinflammatory responses (brain prostaglandin and cytokine production) induced by high-dose lipopolysaccharide treatment was examined.
Mice were treated with compounds 14, 17, control compound 22 or vehicle (50 mg/kg, i.p) for 60-90 min, followed by LPS (20 mg/kg, i.p., 6 hr) or vehicle. The mice were subsequently sacrificed and their brain lipid and cytokine profiles analyzed. […] The LPS-induced elevations in both 2-AG and PGE2 were suppressed in compound 14 and compound 17 treated mice and DAGLα/mice, but not compound 22 treated mice. […] LPS-induced anapyrexia was blunted in compound 14 and 17 treated mice (FIG. 8E) and DAGLα−/− mice (FIG. 8F), but not compound 22 treated mice (FIG. 8E).

DAGLα (hDAGLα-FLAG) = DAGLα (hDAGLα-FLAG) (Homo sapiens (Human), UniProt Q9Y4D2); experiment: competitive ABPP, membrane proteome of transfected HEK293T cells; type: biochemical; details: 0.8 μM (stated under the cell); read-out: DAGLα % inh. 0.8 μM
How it was run: (§1)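 HEK293T membrane proteome (1 mg/ml) expressing FLAG-tagged human DAGLα or DAGLβ, treated 30 min at room temperature with compound, then 30 min with HT-01 or FP-Rh probe (1 μM). Bands separated by SDS-PAGE were normalized to DMSO for IC50 by variable-slope fit.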

DAGLβ (hDAGLβ-FLAG) = DAGLβ (hDAGLβ-FLAG) (Homo sapiens (Human), UniProt Q8NCG7); experiment: as above; type: biochemical; details: 0.8 μM (stated under the cell); read-out: DAGLβ % inh. 0.8 μM
How it was run: as §1

[3] = test system: brain 2-AG and other DAGL-regulated lipids; experiment: brain lipid profiles of treated mice by LC-MS; type: in vivo, mouse; details: 50 mg/kg i.p., 4 hr post-dosing
Method: Brain lipid profiles of mice treated with compounds 14, 17 and control compound 22.
Mice were treated with 50 mg/kg compound (i.p.), followed by lipid profiling using LC-MS at a 4 hr post-dosing. […] This depletion of brain 2-AG in compound 14 and 17-treated mice was dose-dependent (data not shown) and was observed within 2 h after injection. […] The changes in each lipid species were dose-dependent and were absent in compound 22 treated mice (FIGS. 6C, E, G, I, and K).

[4] = test system: DSE at parallel fiber to Purkinje cell synapses; experiment: depolarization-induced suppression of excitation (DSE) in acute cerebellar slices; details: 10 μM
Source text: Various forms of synaptic plasticity are regulated by 2-AG signaling, included depolarization-induced suppression of excitation (DSE) and inhibition (DSI). DSE was examined at parallel fiber (PF) to Purkinje cell (PC) synapses in acute cerebellar slices. A brief depolarization of PCs induced robust transient DSE at PF-PC synapses in vehicle treated cerebellar slices (FIG. 7A).

[5] = 50 mg/kg i.p. 60-90 min before LPS 20 mg/kg i.p., 6 hr

DAGLβ (hDAGLβ-FLAG), sequence (Q8NCG7 whole entry): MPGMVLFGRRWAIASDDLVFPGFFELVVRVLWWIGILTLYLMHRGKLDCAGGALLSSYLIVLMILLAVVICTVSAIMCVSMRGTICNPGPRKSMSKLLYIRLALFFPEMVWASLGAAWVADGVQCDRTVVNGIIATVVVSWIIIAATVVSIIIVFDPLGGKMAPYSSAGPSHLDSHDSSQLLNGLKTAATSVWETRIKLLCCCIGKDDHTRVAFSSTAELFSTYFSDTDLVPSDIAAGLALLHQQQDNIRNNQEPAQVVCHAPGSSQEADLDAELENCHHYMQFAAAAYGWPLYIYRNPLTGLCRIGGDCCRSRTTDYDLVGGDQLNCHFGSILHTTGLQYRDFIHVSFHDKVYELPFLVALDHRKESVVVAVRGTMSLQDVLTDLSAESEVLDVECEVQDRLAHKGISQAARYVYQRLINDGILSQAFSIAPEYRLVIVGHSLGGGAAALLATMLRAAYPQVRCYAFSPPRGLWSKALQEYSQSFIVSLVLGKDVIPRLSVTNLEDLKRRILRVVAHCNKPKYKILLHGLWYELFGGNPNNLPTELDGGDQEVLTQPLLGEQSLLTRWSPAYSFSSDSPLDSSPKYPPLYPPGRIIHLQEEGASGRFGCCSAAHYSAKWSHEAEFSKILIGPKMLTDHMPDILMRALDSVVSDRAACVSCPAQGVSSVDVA
recombinant human DAGLα, sequence (Q9Y4D2 whole entry): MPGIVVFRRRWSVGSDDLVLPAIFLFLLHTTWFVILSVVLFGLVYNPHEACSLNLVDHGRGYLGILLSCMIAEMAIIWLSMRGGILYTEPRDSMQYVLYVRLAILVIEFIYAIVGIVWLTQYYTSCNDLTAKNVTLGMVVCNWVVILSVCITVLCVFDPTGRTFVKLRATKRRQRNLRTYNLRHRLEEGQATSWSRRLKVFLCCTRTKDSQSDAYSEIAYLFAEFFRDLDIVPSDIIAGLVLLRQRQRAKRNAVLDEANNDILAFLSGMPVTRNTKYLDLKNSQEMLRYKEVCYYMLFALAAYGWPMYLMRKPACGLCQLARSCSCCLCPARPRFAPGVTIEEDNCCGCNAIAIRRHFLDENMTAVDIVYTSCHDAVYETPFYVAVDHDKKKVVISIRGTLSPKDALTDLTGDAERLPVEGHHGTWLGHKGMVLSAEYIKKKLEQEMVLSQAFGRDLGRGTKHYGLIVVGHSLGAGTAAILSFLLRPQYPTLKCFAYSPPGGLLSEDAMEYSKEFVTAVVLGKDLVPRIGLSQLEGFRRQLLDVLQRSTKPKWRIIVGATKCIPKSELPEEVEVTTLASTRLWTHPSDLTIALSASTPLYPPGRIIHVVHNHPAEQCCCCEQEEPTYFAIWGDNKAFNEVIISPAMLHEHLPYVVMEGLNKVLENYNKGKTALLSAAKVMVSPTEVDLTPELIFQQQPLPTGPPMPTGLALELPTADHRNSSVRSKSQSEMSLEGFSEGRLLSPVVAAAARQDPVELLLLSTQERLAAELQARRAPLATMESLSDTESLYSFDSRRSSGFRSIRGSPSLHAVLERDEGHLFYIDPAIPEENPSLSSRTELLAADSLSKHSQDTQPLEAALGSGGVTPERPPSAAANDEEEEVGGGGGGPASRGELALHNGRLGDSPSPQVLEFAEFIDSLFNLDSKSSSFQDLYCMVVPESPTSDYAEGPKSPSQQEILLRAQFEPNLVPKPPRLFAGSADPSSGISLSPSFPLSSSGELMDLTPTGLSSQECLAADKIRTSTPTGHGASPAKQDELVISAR
DAGLα (hDAGLα-FLAG), sequence (Q9Y4D2 whole entry): as above

inhibition of DAGLα (recombinant human DAGLα): did not substantially inhibit
inhibition at 0.8 µM (DAGLα (hDAGLα-FLAG)): 0 to 25%
inhibition at 0.8 µM (DAGLβ (hDAGLβ-FLAG)): 0 to 25%
Compound: CC(C)(C)OC(=O)N1CCN(C(=O)n2cc(-c3ccc(OC(F)(F)F)cc3)nn2)C(c2ccccc2)C1 (centres unmarked) [Compound 22, tert-butyl 3-phenyl-4-(4-(4-(trifluoromethoxy)phenyl)-1H-1,2,3-triazole-1-carbonyl)piperazine-1-carboxylate]
effect on hippocampal DSI [1]: not
LPS-induced elevation in brain 2-AG [2, 5]: not
LPS-induced elevation in brain PGE2 [2, 5]: not
LPS-induced anapyrexia ([2]; 50 mg/kg i.p. before LPS): not
brain AA under basal control conditions ([2]; 50 mg/kg i.p., no LPS): not
brain PGE2 under basal control conditions ([2]; 50 mg/kg i.p., no LPS): not
brain 2-AG levels [3]: not
brain AA [3]: absent
brain AEA [3]: absent
brain C18:1/C20:4 DAG [3]: absent
brain PGD2 [3]: absent
brain PGE2 [3]: absent
brain SAG [3]: absent
effect on cerebellar DSE [4]: did not alter
